Assay results taken from US11091501B2, “Heterocyclic compounds as RSV inhibitors” (Enanta Pharmaceuticals, Inc., priority 2017, dated 2021).

The molecules below were run on Human RSV-A (“Long” strain) (assay: RSV in vitro cytoprotection assay (CPE, ATPlite) in HEp-2 cells). Details: human respiratory syncytial virus, 96 h; HEp-2 cells, 4-day incubation, ATPlite readout; read-out: Human RSV-A (“Long” strain) EC50.
Type: cell-based
From the text: RSV is a single stranded negative sense RNA virus that causes respiratory tract infections which can be dangerous to infants, the elderly, and immunosuppressed individuals. Currently there is no vaccine, and therapeutic options are both costly and of limited effectiveness. These approved treatments are Ribavirin, and Palivizumab/Synagis (a monoclonal antibody). RSV has two genotypes, A and B, which differ primarily in the structure of the virus' surface “G” attachment protein. Our current primary screen focuses on RSV-A and uses an in vitro cytoprotection assay where compounds are added in 2-fold dilutions to cells which are then subjected to fully replicative viral particles. Cell viability is measured several days later along with separate measurements of compound cytotoxicity. This report focuses on the results of our most recent screening of compounds.
HEp-2 cells, (originally derived from tumors grown in irradiated-cortisonised weanling rats that had been injected with epidermoid carcinoma tissue from a person's larynx, but later found to be indistinguishable from HeLa cells by PCR DNA analysis), were used for the culturing of genotype A, “Long” strain RSV. Flasks were inoculated with RSV and viral stocks were collected once cytopathic effect (CPE) was greater than 90%. Viral stocks in 25% sucrose media were snap frozen using liquid nitrogen to increase viral stability. Viral stock titers were quantified by tissue culture infectious dose 50% (TCID50) using 8,000 cells per well and 3-fold viral dilutions across a 96-well plate, cultured for 4 days.
Following extensive parameter testing, the final assay is run as follows: HEp-2 cells are seeded into the inner 60 wells of a 96-well plate at 8,000 cells per well in a volume of 50 μL using Growth Media (DMEM without phenol red, 1% L-Glut, 1% Penn/Strep, 1% nonessential amino acids, 10% FBS). 2-Fold serial dilutions of control and test compounds are added to the wells in duplicate in a total volume of 25 μL. Viral stock is then added to the wells in a volume of […] the total volume of each well to 100 μL. Each 96-well plate has a control column of 6 wells with cells and virus but no compound (negative control, max CPE), a column with cells but no compound or virus (positive control, minimum CPE), and a column with no cells or virus or compound (background plate/reagent control). The control wells with cells but no virus are given an additional 25 uL of growth media containing an equal quantity of sucrose as those wells receiving the viral stock in order to keep consistent in media and volume conditions. The outer wells of the plate are filled with 125 μL of growth media to act as a thermal and evaporative moat around the test wells. Following a 4-day incubation period, the plates are read using ATPlite (50 uL added per well), which quantifies the amount of ATP (a measure of cell health) present in each well. Assay plates are read using the Envision luminometer. In parallel, cytotoxicity is examined on an additional 96-well plate treated in an identical manner, but substituting the 25 μL of viral stock for 25 μL of growth media. […] EC50 ranges are as follows: A<0.01 μM; B 0.01-0.05 μM; C>0.05 μM.

Row | Structure (SMILES) | EC50 [µM]
1 | Cc1cnc(N2CC3(CCOCC3)C2)c(C(=O)Nc2ccc(C(=O)N3CCc4cc(-c5nc6ccccc6[nH]5)sc4-c4ccc(F)cc43)cc2)c1 [Example 3] | < 0.01
2 | O=C(Nc1c(F)cc(F)cc1F)c1cc2c(s1)-c1ccc(F)cc1N(C(=O)c1ccc(NC(=O)c3cc(F)cnc3N3CC4(CCOCC4)C3)cc1)CC2 [Example 4] | > 0.05
3 | Cc1cnc(N2CC3(CCOCC3)C2)c(C(=O)Nc2ccc(C(=O)N3CCc4cc(C(=O)Nc5c(F)cccc5C(F)(F)F)sc4-c4ccc(F)cc43)cc2)c1 [Example 5] | < 0.01
4 | Cc1cnc(N2CC3(CCOCC3)C2)c(C(=O)Nc2ccc(C(=O)N3CCc4cc(C(=O)Nc5c(C)cccc5C)sc4-c4ccc(F)cc43)cc2)c1 [Example 6] | < 0.01
5 | Cc1cnc(N2CC3(CCOCC3)C2)c(C(=O)Nc2ccc(C(=O)N3CCc4cc(C(=O)Nc5c(C)cccc5F)sc4-c4ccc(F)cc43)cc2)c1 [Example 7] | < 0.01
6 | Cc1cnc(N2CC3(CCOCC3)C2)c(C(=O)Nc2ccc(C(=O)N3CCc4cc(C(=O)Nc5ccccc5F)sc4-c4ccc(F)cc43)cc2)c1 [Example 8] | < 0.01
7 | Cc1cnc(N2CC3(CCOCC3)C2)c(C(=O)Nc2ccc(C(=O)N3CCc4cc(C(=O)Nc5c(Cl)cccc5Cl)sc4-c4ccc(F)cc43)cc2)c1 [Example 9] | < 0.01
8 | O=C(Nc1ccc(C(=O)N2CCc3cc(-c4nc5ccccc5[nH]4)sc3-c3ccc(F)cc32)cc1)c1cc2ccccc2nc1N1CC2(CCOCC2)C1 [Example 10] | 0.01 to 0.05
9 | Cc1cnc(N2CC3(CCOCC3)C2)c(C(=O)Nc2ccc(C(=O)N3CCc4cc(C(=O)Nc5c(C)cccc5C#N)sc4-c4ccc(F)cc43)cc2)c1 [Example 11] | < 0.01
10 | Cc1cnc(N2CC3(CCOCC3)C2)c(C(=O)Nc2ccc(C(=O)N3CCc4cc(C(=O)Nc5c(F)cccc5F)sc4-c4ccc(F)cc43)cc2)c1 [Example 12] | < 0.01
11 | Cc1cnc(N2CC3(CCOCC3)C2)c(C(=O)Nc2ccc(C(=O)N3CCc4cc(C(=O)Nc5c(F)cc(F)cc5F)sc4-c4ccc(F)cc43)cc2)c1 [Example 13] | < 0.01
12 | Cc1cccc(F)c1NC(=O)c1cc2c(s1)-c1ccc(F)cc1N(C(=O)c1ccc(NC(=O)c3cc4ccccc4nc3N3CC4(CCOCC4)C3)cc1)CC2 [Example 14] | < 0.01
13 | O=C(Nc1c(F)cc(F)cc1F)c1cc2c(s1)-c1ccc(F)cc1N(C(=O)c1ccc(NC(=O)c3cc4ccccc4nc3N3CC4(CCOCC4)C3)cc1)CC2 [Example 15] | < 0.01
14 | O=C(Nc1c(F)cccc1F)c1cc2c(s1)-c1ccc(F)cc1N(C(=O)c1ccc(NC(=O)c3cc4ccccc4nc3N3CC4(CCOCC4)C3)cc1)CC2 [Example 16] | < 0.01
15 | N#Cc1cnc(N2CC3(CCOCC3)C2)c(C(=O)Nc2ccc(C(=O)N3CCc4cc(C(=O)Nc5c(F)cc(F)cc5Cl)sc4-c4ccc(F)cc43)cc2)c1 [Example 17] | 0.01 to 0.05
16 | N#Cc1cnc(N2CC3(CCOCC3)C2)c(C(=O)Nc2ccc(C(=O)N3CCc4cc(C(=O)Nc5c(Cl)cccc5Cl)sc4-c4ccc(F)cc43)cc2)c1 [Example 18] | 0.01 to 0.05
17 | O=C(Nc1c(F)cccc1F)c1cc2c(s1)-c1ccc(F)cc1N(C(=O)c1ccc(NC(=O)c3cccnc3N3CC4(CCOCC4)C3)cc1)CC2 [Example 19] | < 0.01
18 | O=C(Nc1c(F)cccc1Cl)c1cc2c(s1)-c1ccc(F)cc1N(C(=O)c1ccc(NC(=O)c3cccnc3N3CC4(CCOCC4)C3)cc1)CC2 [Example 20] | < 0.01
19 | O=C(Nc1c(F)cc(F)cc1F)c1cc2c(s1)-c1ccc(F)cc1N(C(=O)c1ccc(NC(=O)c3cccnc3N3CC4(CCOCC4)C3)cc1)CC2 [Example 22] | < 0.01
20 | O=C(Nc1c(F)cc(F)cc1Cl)c1cc2c(s1)-c1ccc(F)cc1N(C(=O)c1ccc(NC(=O)c3ccc(C(F)(F)F)nc3N3CC4(CCOCC4)C3)cc1)CC2 [Example 23] | 0.01 to 0.05
21 | COc1ccc(C(=O)Nc2ccc(C(=O)N3CCc4cc(C(=O)Nc5c(F)cc(F)cc5Cl)sc4-c4ccc(F)cc43)cc2)c(N2CC3(CCOCC3)C2)n1 [Example 24] | 0.01 to 0.05
22 | O=C(Nc1c(F)cc(F)cc1Cl)c1cc2c(s1)-c1ccc(F)cc1N(C(=O)c1ccc(NC(=O)c3cc4ccccc4nc3N3CC4(CCOCC4)C3)cc1)CC2 [Example 25] | 0.01 to 0.05
23 | O=C(Nc1c(F)cc(F)cc1Cl)c1cc2c(s1)-c1ccc(F)cc1N(C(=O)c1ccc(NC(=O)c3cc(F)cnc3N3CC4(CCOCC4)C3)cc1)CC2 [Example 26] | < 0.01
24 | O=C(Nc1c(F)cc(F)cc1Cl)c1cc2c(s1)-c1ccc(F)cc1N(C(=O)c1ccc(NC(=O)c3ccc(-c4cccs4)nc3N3CC4(CCOCC4)C3)cc1)CC2 [Example 27] | 0.01 to 0.05
25 | O=C(Nc1c(F)cc(F)cc1Cl)c1cc2c(s1)-c1ccc(F)cc1N(C(=O)c1ccc(NC(=O)c3cc4ccccc4nc3N3C4CCC3COC4)cc1)CC2 [Example 32] | > 0.05

Results, then the molecule that gave them:

Row | EC50 [µM] | Structure (SMILES)
26 | 0.01 to 0.05 | O=C(Nc1c(F)cc(F)cc1Cl)c1cc2c(s1)-c1ccc(F)cc1N(C(=O)c1ccc(NC(=O)c3cc(-c4cccs4)cnc3N3CC4(CCOCC4)C3)cc1)CC2 [Example 28]
27 | 0.01 to 0.05 | O=C(Nc1c(F)cc(F)cc1Cl)c1cc2c(s1)-c1ccc(F)cc1N(C(=O)c1ccc(NC(=O)c3cc(C(F)(F)F)cnc3N3CC4(CCOCC4)C3)cc1)CC2 [Example 29]
28 | 0.01 to 0.05 | O=C(Nc1c(F)cc(F)cc1Cl)c1cc2c(s1)-c1ccc(F)cc1N(C(=O)c1ccc(NC(=O)c3cc(C(F)(F)F)cnc3N3CCC4(CC3)COC4)cc1)CC2 [Example 30]
29 | > 0.05 | O=C(Nc1c(F)cc(F)cc1Cl)c1cc2c(s1)-c1ccc(F)cc1N(C(=O)c1ccc(NC(=O)c3cc4ccccc4nc3N3CCS(=O)(=O)CC3)cc1)CC2 [Example 33]
30 | > 0.05 | O=C(Nc1c(F)cc(F)cc1Cl)c1cc2c(s1)-c1ccc(F)cc1N(C(=O)c1ccc(NC(=O)c3cc4ccccc4nc3N3CCCS(=O)(=O)CC3)cc1)CC2 [Example 34]
31 | < 0.01 | O=C(Nc1c(F)cccc1F)c1cc2c(s1)-c1ccc(F)cc1N(C(=O)c1ccc(NC(=O)c3cc(F)cnc3N3CC4(CCOCC4)C3)cc1)CC2 [Example 35]
32 | < 0.01 | Cc1cccc(F)c1NC(=O)c1cc2c(s1)-c1ccc(F)cc1N(C(=O)c1ccc(NC(=O)c3cc(F)cnc3N3CC4(CCOCC4)C3)cc1)CC2 [Example 36]
33 | < 0.01 | O=C(Nc1c(F)cccc1Cl)c1cc2c(s1)-c1ccc(F)cc1N(C(=O)c1ccc(NC(=O)c3cc(F)cnc3N3CC4(CCOCC4)C3)cc1)CC2 [Example 37]
34 | 0.01 to 0.05 | O=C(Nc1ccc(C(=O)N2CCc3cc(-c4nc5ccccc5[nH]4)sc3-c3ccc(F)cc32)cc1)c1cccnc1N1CC2(CCOCC2)C1 [Example 38]
35 | 0.01 to 0.05 | O=C(Nc1ccc(C(=O)N2CCc3cc(-c4nc5ccc(F)cc5[nH]4)sc3-c3ccc(F)cc32)cc1)c1cccnc1N1CC2(CCOCC2)C1 [Example 39]
36 | 0.01 to 0.05 | O=C(Nc1ccc(C(=O)N2CCc3cc(-c4nc5cccc(F)c5[nH]4)sc3-c3ccc(F)cc32)cc1)c1cccnc1N1CC2(CCOCC2)C1 [Example 40]
37 | > 0.05 | O=C(Nc1ccc(C(=O)N2CCc3cc(-c4nc5cc(F)c(F)cc5[nH]4)sc3-c3ccc(F)cc32)cc1)c1cccnc1N1CC2(CCOCC2)C1 [Example 41]
38 | 0.01 to 0.05 | O=C(Nc1ccc(C(=O)N2CCc3cc(-c4nc5ccc(F)cc5[nH]4)sc3-c3ccc(F)cc32)cc1)c1cc(F)cnc1N1CC2(CCOCC2)C1 [Example 42]
39 | 0.01 to 0.05 | O=C(Nc1ccc(C(=O)N2CCc3cc(-c4nc5cccc(F)c5[nH]4)sc3-c3ccc(F)cc32)cc1)c1cc(F)cnc1N1CC2(CCOCC2)C1 [Example 43]
